Source: patent publication US5652239A, “Pyridazinedione derivatives useful in treatment of neurological disorders” (Imperial Chemical Company, priority 1991, dated 1997)

How the values were obtained:
[1] = system: glutamate-evoked contractions of the guinea pig ileum; assay: Test B: glutamate-evoked contractions of the guinea pig ileum; type: cell-based; settings: Cavia porcellus; twitch responses evoked with 100 micromolar glutamate
Source text: (§1) The actions of compounds of formula I as antagonists at the glycine receptor of the NMDA receptor complex can be shown by one or more standard tests such as the [^3 H]-glycine binding assay (Test A), by functional assays in vitro such as tests for measuring glutamate-evoked contractions of the guinea pig ileum (Test B) and/or tests for measuring antagonism of NMDA-induced evoked response in hippocampal slices (Test C), and by tests in vivo such as ischemia induced by carotid occlusion in the gerbil model (Test D).
For glutamate-evoked contractions of the guinea pig ileum, the methodology is as described previously (Luzzi et. al., Br. J. Pharmacol., 95, 1271-1277 (1989)). The longitudinal muscle and associated myenteric plexus are removed and placed in oxygenated modified Krebs-Henseleit solution (118 millimolar NaCl, 4.7 millimolar KCl, 2.5 millimolar CaCl2, 1.2 millimolar KH2 PO4, 25 millimolar NaHCO3, and 11 millimolar glucose). Tissues are suspended on glass rods in organ baths under a resting tension of 0.5 g. After an initial depolarization with 80 millimolar potassium ion to remove possible blockade of the NMDA receptor channel complex with magnesium ion, twitch responses are evoked with 100 micromolar glutamate. Isometric mechanical responses are recorded. Tissues are equilibrated for at least 2 hours prior to addition of compounds.
A dose response curve for the effect of the unknown on the magnitude of the glutamate-evoked contractions is generated. Glutamate-evoked contractions are generated at 20 minute intervals, with the test compound added 5 minutes before the glutamate. The magnitude of the contraction with each dose of the unknown is expressed relative to the control, the third contraction evoked by 100 micromolar glutamate alone in the same tissue bath. The IC50 is obtained from a least-squares regression of a logit-log transformation of the data.
After the last contraction for the dose-response curve, 100 micromolar glycine is added to the bath 10 minutes after the previous addition of glutamate. […]

[2] = biological target: T1, glycine receptor of the NMDA receptor complex (Rattus norvegicus, UniProt P35439); assay: Test A: [^3 H]-glycine binding assay; set-up: species or system male Sprague-Dawley rats; settings: 20 nanomolar [^3 H]-glycine, rat cortical/hippocampal synaptic membranes, pH 7.1, 30 minutes at 4° C.
T1 construct: neuronal synaptic membranes are prepared from adult (about 250 g) male Sprague-Dawley rats; from tissue; host or cells: cerebral cortices and hippocampi of adult male Sprague-Dawley rats, synaptic membranes
Source text: as §1
In the [^3 H]-glycine binding assay, neuronal synaptic membranes are prepared from adult (about 250 g) male Sprague-Dawley rats. Freshly dissected cortices and hippocampi are homogenized in 0.32M sucrose (110 mg/mL). Synaptosomes are isolated by centrifugation (1000 xg, 10 min), the supernatant is pelleted (20,000 xg, 20 min) and resuspended in double-distilled water. The suspension was centrifuged for 20 minutes at 8,000 xg. The resulting […] and buffy coat are washed twice (48,000 xg, 10 mins, resuspension in double-deionized water). The final pellet is quickly frozen (dry ice/ethanol bath) under double-deionized water and stored at -70° C.
On the day of the experiment, thawed synaptic membranes are homogenized with a Brinkmann Polytron (™, Brinkmann Instruments, Westbury, N.Y.) tissue homogenizer in 50 millimolar tris(hydroxymethyl)aminomethane citrate, pH 7.1. The membranes are incubated with 0.04% Sufact-AMPS X100 (™, Pierce, Rockford, Ill.) in buffer for 20 minutes at 37° C. and washed six times by centrifugation (48,000 xg, 10 min) and resuspended in buffer. The final pellet is homogenized at 200 mg wet weight/mL of the buffer for the binding assay.
For [^3 H]-glycine binding at the N-methyl-D-aspartate receptor, 20 nanomolar [^3 H]-glycine (40-60 Ci/mmol, New England Nuclear, Boston, Mass.) is incubated with the membranes suspended in 50 millimolar tris (hydroxymethyl)aminomethane citrate, pH 7.1 for 30 minutes at 4° C. Glycine, 1 millimolar, is used to define the nonspecific binding. […] Radioactivity is estimated by liquid scintillation counting. […]

[3] = system: NMDA receptor-mediated synaptic transmission in hippocampal slices; assay: Test C: hippocampal slice test (HST), antagonism of NMDA-induced evoked response; type: cell-based, male Sprague-Dawley rats; settings: 0 Mg++; for inhibition of the secondary PSs (antagonism) / reversal of the inhibition by D-serine: Example 1 at 15.2 μM, Example 4 at 10 μM; for concentration at which glycine antagonism is exhibited: evaluated at a multiple of the Test B IC50
Source text: as §1
The characterization of a compound as a glycine antagonist in the hippocampal slice test (HST) is dependent on (1) the ability of the compound to inhibit NMDA receptor-mediated synaptic transmission in hippocampal slices and (2) the subsequent reversal of these inhibitory effects by D-serine.
The procedure for the HST is as follows. Transverse hippocampal slices are obtained from male Sprague-Dawley rats weighting 80-150 gm. The rats are decapitated and the brains quickly removed and placed in cold Krebs-Ringersolution which contains (in millimolar) NaCl (122.6), NaHCO3 (26.2), KCl (5.4), MgSO4 (2.0), NaH2 PO4 (1.2), CaCl2 (2.0), and D-glucose (10.0). The hippocampus is dissected free from surrounding tissues, and 495 microns thick slices are cut and immediately transferred to a humidified static interface chamber with a 95% O2 :5% CO2 atmosphere at room temperature. Following a 1-hour equilibration period, slices are placed one at a time into a small perfusion chamber where they are completely submerged in continuously flowing oxygenated 2 millimolar Mg++ perfusate (4 mL/min) at 33° C. and allowed to equilibrate for 10 to 15 min.
For the electrophysiology part of the experiments, bipolar tungsten stimulating electrodes are positioned in the stratum radiatum of the CA3 cell body region of the hippocampus and a single-barrel glass microelectrode filled with Krebs-Ringer solution is positioned in the CA1 cell body region. Low frequency stimulation is then applied to area CA3 which evokes a primary population spike (PS) recorded from CA1. The primary PS represents the summation of a multiple of synaptic potentials mediated via the quisqualate receptor. The stimulus intensity is adjusted to evoke a PS of 1-4 mV amplitude and is maintained at this intensity throughout the experiment.
When the perfusion medium is then changed from 1 millimolar Mg++ to one containing 0 Mg++, the primary PS is followed by the appearance of many secondary PSs. The appearance of the secondary PSs are attributed to the unmasking of NMDA-mediated synaptic events in 0 Mg++. […] The effects of directly acting NMDA and indirectly acting NMDA (ie, glycine) receptor antagonists can also be differentiated by the ability of D-serine to reverse this inhibition.

[4] = system: neuronal damage in the hippocampus; assay: Test D: ischemia induced by carotid occlusion in the gerbil model; type: in vivo, adult female Mongolian gerbils; settings: 10 mg/Kg intraperitoneally, 45 minutes before and 5 minutes after occlusion
Source text: as §1
When testing in vivo using the gerbil ischemic model, adult female Mongolian gerbils (50-70 g) are anesthetized with 2 to 3% halothane. The bilateral common carotid arteries at the neck are exposed and occluded with microaneurysm clips. After 10 min (unless specified), the clips are removed and the blood flow through the carotid arteries is restored and the skin is sutured. […] Gross behavioral observations along with motor activity are recorded for 2 hr on the first (24 hr) day following the occlusion. […]
Sections (7 micron) are evaluated from each brain. […] The average brain damage rating score for each group is recorded, and the damage scores of the drug treated group are compared to the vehicle-treated group using Wilcoxon-Rank Sum test. […]

[5] = system: NMDA receptor-mediated synaptic transmission in hippocampal slices; settings: reference antagonists, 0 Mg++, general statement; cited from earlier work

Row | SMILES | IC50 [1] [µM] | IC50 [2] [µM] | reversal of the inhibition of the secondary PSs by D-serine [5] | further results
1 | O=c1[nH][nH]c(=O)c2c1[nH]c1cc(Cl)cc(Cl)c12 [Example 4] | 6.4 | 0.33 |  | inhibition of the secondary PSs (antagonism) [3]: antagonist; reversal of the inhibition by D-serine [3]: reversible by D-serine; concentration at which glycine antagonism is exhibited [3]: 10 µM; neuroprotection (relative to sham-operated control) [4]: over 75%
2 | O=C(O)C1CN(CCCP(=O)(O)O)CCN1 (stereo not shown) [CPP] |  |  | not reversed by D-serine | 
3 | NC1CCN(O)C1=O (stereo not shown) [HA-966] |  |  | reversed by D-serine | inhibition of the secondary PSs [5]: inhibit the secondary PSs
4 | c1ccc(C2(N3CCCCC3)CCCCC2)cc1 [PCP] |  |  | not reversed by D-serine | 
5 | NC(CCCP(=O)(O)O)C(=O)O (stereo not shown) [APV] |  |  | not reversed by D-serine | 
6 | O=C(O)c1cc(O)c2ccc(Cl)cc2n1 [7-chlorokynurenic acid] |  |  | reversed by D-serine | inhibition of the secondary PSs [5]: inhibit the secondary PSs
7 | C[C@]12N[C@H](Cc3ccccc31)c1ccccc12 [MK-801] |  |  | not reversed by D-serine | 
8 | O=c1[nH][nH]c(=O)c2c1[nH]c1cc(C(F)(F)F)cc(C(F)(F)F)c12 [Example 7, 7,9-Ditrifluoromethylpyridazino[4,5-b]indole-1,4-dione] | 69 | 2.7 |  | 
9 | O=c1[nH][nH]c(=O)c2c1[nH]c1cc(Cl)ccc12 [Example 1] | 13 | 0.55 |  | inhibition of the secondary PSs (antagonism) [3]: antagonist; reversal of the inhibition by D-serine [3]: reversible by D-serine; concentration at which glycine antagonism is exhibited [3]: 15.2 µM; neuroprotection (relative to sham-operated control) [4]: 34%
